Where no end group is shown, it is not given here.
Experiment: Evaluation of toxicity of the peptide, tail vein administration
Format: in vivo
Details: female BALB/c mouse, 5 mg/kg
Experimental: The peptide of the present invention was administered to a mouse from its tail vein to thereby evaluate its toxicity. The mouse used was a female BALB/c mouse of 5 week old, and the peptide was used at a dose of 5 mg/kg.

With LARLLARLLARLLRALLRALLRAL [SEQ ID NO:27] as the sequence, how does the “toxicity after tail vein administration” value read?
Its value is “died immediately after the administration”.

From US20040171795A1, “Novel peptides” (priority 2000, published 2004)
